# Reference: the supplement of paper PMC4862054
# System: BT-549
# Experiment: normalised response (% of control), CellTox Green; higher = less cell death (100 = DMSO, 0 = benzethonium chloride kill control)
# Details: incubation time: 72 h
# Outline: (§1)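 For each plate, 0.1 % DMSO was set to 100 and a positive kill control to 0. Breast cancer cell lines (20 µl suspension) were seeded into 384-well plates already holding compound at 5 concentrations in 10-fold steps over a 10,000-fold range chosen per compound, and incubated for 72 h. CellTox Green fluorescence at 485/520 nm was read before CellTiter-Glo luminescence, which followed 10 min at room temperature. Each value is the normalised signal at one concentration.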
row,Compound,normalised response [%]
1,CC(C)(C)Cn1c(N)nc2ccc(-c3[nH]c(C(C)(C)C)nc3-c3ccc(F)cc3)nc21 (10000 nM),90.9
2,Cn1cc(C[C@@H](N)C(=O)O)c2ccccc21 [1-methyl-D-tryptophan] (5000 nM),90
3,CC[C@H](CC#N)OC(=O)N[C@@H](C)c1cccc(NC(=O)Nc2ccc(-c3cnco3)c(OC)c2)c1 [AVN944] (10000 nM),88.5
4,CCc1cnn2c(NCc3ccc[n+]([O-])c3)cc(N3CCCC[C@H]3CCO)nc12 [Dinaciclib] (1000 nM),81.4
5,Cc1c(C(=O)Nc2ccc(N3C[C@@H](C)O[C@@H](C)C3)nc2)cccc1-c1ccc(OC(F)(F)F)cc1 [Erismodegib] (10000 nM),130
6,COc1cc(Nc2ncc(F)c(Nc3ccc4c(n3)N(COP(=O)(O)O)C(=O)C(C)(C)O4)n2)cc(OC)c1OC [Fostamatinib] (2500 nM),64.8
7,CC(C)NC[C@@H](C(=O)N1CCN(c2ncnc3c2[C@H](C)C[C@H]3O)CC1)c1ccc(Cl)cc1 [GDC-0068] (10000 nM),76.8
8,CCCc1cc(C)[nH]c(=O)c1CNC(=O)c1cc(-c2ccnc(N3CCN(C)CC3)c2)cc2c1cnn2C(C)C [GSK343] (10000 nM),97.6

# System: MDA-MB-468
# Experiment: as above
# Details: incubation time: 72 h
# Outline: as §1
row,Compound,normalised response [%]
1,CC(C)(C)Cn1c(N)nc2ccc(-c3[nH]c(C(C)(C)C)nc3-c3ccc(F)cc3)nc21 (10000 nM),107
2,Cn1cc(C[C@@H](N)C(=O)O)c2ccccc21 [1-methyl-D-tryptophan] (5000 nM),53
3,CC[C@H](CC#N)OC(=O)N[C@@H](C)c1cccc(NC(=O)Nc2ccc(-c3cnco3)c(OC)c2)c1 [AVN944] (10000 nM),124
4,CCc1cnn2c(NCc3ccc[n+]([O-])c3)cc(N3CCCC[C@H]3CCO)nc12 [Dinaciclib] (1000 nM),31.8
5,Cc1c(C(=O)Nc2ccc(N3C[C@@H](C)O[C@@H](C)C3)nc2)cccc1-c1ccc(OC(F)(F)F)cc1 [Erismodegib] (10000 nM),171
6,COc1cc(Nc2ncc(F)c(Nc3ccc4c(n3)N(COP(=O)(O)O)C(=O)C(C)(C)O4)n2)cc(OC)c1OC [Fostamatinib] (2500 nM),37.4
7,CC(C)NC[C@@H](C(=O)N1CCN(c2ncnc3c2[C@H](C)C[C@H]3O)CC1)c1ccc(Cl)cc1 [GDC-0068] (10000 nM),46.7
8,CCCc1cc(C)[nH]c(=O)c1CNC(=O)c1cc(-c2ccnc(N3CCN(C)CC3)c2)cc2c1cnn2C(C)C [GSK343] (10000 nM),114

# System: Hs578T
# Experiment: as above
# Details: incubation time: 72 h
# Outline: as §1
row,Compound,normalised response [%]
1,Cn1cc(C[C@@H](N)C(=O)O)c2ccccc21 [1-methyl-D-tryptophan] (5000 nM),101
2,CC[C@H](CC#N)OC(=O)N[C@@H](C)c1cccc(NC(=O)Nc2ccc(-c3cnco3)c(OC)c2)c1 [AVN944] (10000 nM),48
3,CCc1cnn2c(NCc3ccc[n+]([O-])c3)cc(N3CCCC[C@H]3CCO)nc12 [Dinaciclib] (1000 nM),36.3
4,Cc1c(C(=O)Nc2ccc(N3C[C@@H](C)O[C@@H](C)C3)nc2)cccc1-c1ccc(OC(F)(F)F)cc1 [Erismodegib] (10000 nM),80.5
5,COc1cc(Nc2ncc(F)c(Nc3ccc4c(n3)N(COP(=O)(O)O)C(=O)C(C)(C)O4)n2)cc(OC)c1OC [Fostamatinib] (2500 nM),19.2
6,CC(C)NC[C@@H](C(=O)N1CCN(c2ncnc3c2[C@H](C)C[C@H]3O)CC1)c1ccc(Cl)cc1 [GDC-0068] (10000 nM),119
7,CCCc1cc(C)[nH]c(=O)c1CNC(=O)c1cc(-c2ccnc(N3CCN(C)CC3)c2)cc2c1cnn2C(C)C [GSK343] (10000 nM),79.2

# System: BT-474
# Experiment: as above
# Details: incubation time: 72 h
# Outline: as §1
row,Compound,normalised response [%]
1,CC(C)(C)Cn1c(N)nc2ccc(-c3[nH]c(C(C)(C)C)nc3-c3ccc(F)cc3)nc21 (10000 nM),89.8
2,Cn1cc(C[C@@H](N)C(=O)O)c2ccccc21 [1-methyl-D-tryptophan] (5000 nM),99.7
3,CC[C@H](CC#N)OC(=O)N[C@@H](C)c1cccc(NC(=O)Nc2ccc(-c3cnco3)c(OC)c2)c1 [AVN944] (10000 nM),96.4
4,CCc1cnn2c(NCc3ccc[n+]([O-])c3)cc(N3CCCC[C@H]3CCO)nc12 [Dinaciclib] (1000 nM),88.3
5,Cc1c(C(=O)Nc2ccc(N3C[C@@H](C)O[C@@H](C)C3)nc2)cccc1-c1ccc(OC(F)(F)F)cc1 [Erismodegib] (10000 nM),93
6,COc1cc(Nc2ncc(F)c(Nc3ccc4c(n3)N(COP(=O)(O)O)C(=O)C(C)(C)O4)n2)cc(OC)c1OC [Fostamatinib] (2500 nM),77.7
7,CC(C)NC[C@@H](C(=O)N1CCN(c2ncnc3c2[C@H](C)C[C@H]3O)CC1)c1ccc(Cl)cc1 [GDC-0068] (10000 nM),95.7
8,CCCc1cc(C)[nH]c(=O)c1CNC(=O)c1cc(-c2ccnc(N3CCN(C)CC3)c2)cc2c1cnn2C(C)C [GSK343] (10000 nM),4.03

# System: MFM-223
# Experiment: as above
# Details: incubation time: 72 h
# Outline: as §1
row,Compound,normalised response [%]
1,CC(C)(C)Cn1c(N)nc2ccc(-c3[nH]c(C(C)(C)C)nc3-c3ccc(F)cc3)nc21 (10000 nM),86.6
2,Cn1cc(C[C@@H](N)C(=O)O)c2ccccc21 [1-methyl-D-tryptophan] (5000 nM),103
3,CC[C@H](CC#N)OC(=O)N[C@@H](C)c1cccc(NC(=O)Nc2ccc(-c3cnco3)c(OC)c2)c1 [AVN944] (10000 nM),100
4,CCc1cnn2c(NCc3ccc[n+]([O-])c3)cc(N3CCCC[C@H]3CCO)nc12 [Dinaciclib] (1000 nM),42.2
5,Cc1c(C(=O)Nc2ccc(N3C[C@@H](C)O[C@@H](C)C3)nc2)cccc1-c1ccc(OC(F)(F)F)cc1 [Erismodegib] (10000 nM),105
6,COc1cc(Nc2ncc(F)c(Nc3ccc4c(n3)N(COP(=O)(O)O)C(=O)C(C)(C)O4)n2)cc(OC)c1OC [Fostamatinib] (2500 nM),87.5
7,CC(C)NC[C@@H](C(=O)N1CCN(c2ncnc3c2[C@H](C)C[C@H]3O)CC1)c1ccc(Cl)cc1 [GDC-0068] (10000 nM),74.7
8,CCCc1cc(C)[nH]c(=O)c1CNC(=O)c1cc(-c2ccnc(N3CCN(C)CC3)c2)cc2c1cnn2C(C)C [GSK343] (10000 nM),77.3

# System: CAL-85-1
# Experiment: as above
# Details: incubation time: 72 h
# Outline: as §1
row,Compound,normalised response [%]
1,CC(C)(C)Cn1c(N)nc2ccc(-c3[nH]c(C(C)(C)C)nc3-c3ccc(F)cc3)nc21 (10000 nM),41.5
2,Cn1cc(C[C@@H](N)C(=O)O)c2ccccc21 [1-methyl-D-tryptophan] (5000 nM),106
3,CC[C@H](CC#N)OC(=O)N[C@@H](C)c1cccc(NC(=O)Nc2ccc(-c3cnco3)c(OC)c2)c1 [AVN944] (10000 nM),101
4,CCc1cnn2c(NCc3ccc[n+]([O-])c3)cc(N3CCCC[C@H]3CCO)nc12 [Dinaciclib] (1000 nM),4.91
5,Cc1c(C(=O)Nc2ccc(N3C[C@@H](C)O[C@@H](C)C3)nc2)cccc1-c1ccc(OC(F)(F)F)cc1 [Erismodegib] (10000 nM),85.3
6,COc1cc(Nc2ncc(F)c(Nc3ccc4c(n3)N(COP(=O)(O)O)C(=O)C(C)(C)O4)n2)cc(OC)c1OC [Fostamatinib] (2500 nM),-13.8
7,CC(C)NC[C@@H](C(=O)N1CCN(c2ncnc3c2[C@H](C)C[C@H]3O)CC1)c1ccc(Cl)cc1 [GDC-0068] (10000 nM),100
8,CCCc1cc(C)[nH]c(=O)c1CNC(=O)c1cc(-c2ccnc(N3CCN(C)CC3)c2)cc2c1cnn2C(C)C [GSK343] (10000 nM),56.8

# System: MDA-MB-453
# Experiment: as above
# Details: incubation time: 72 h
# Outline: as §1
row,Compound,normalised response [%]
1,CC(C)(C)Cn1c(N)nc2ccc(-c3[nH]c(C(C)(C)C)nc3-c3ccc(F)cc3)nc21 (10000 nM),93.9
2,Cn1cc(C[C@@H](N)C(=O)O)c2ccccc21 [1-methyl-D-tryptophan] (5000 nM),99.9
3,CC[C@H](CC#N)OC(=O)N[C@@H](C)c1cccc(NC(=O)Nc2ccc(-c3cnco3)c(OC)c2)c1 [AVN944] (10000 nM),107
4,CCc1cnn2c(NCc3ccc[n+]([O-])c3)cc(N3CCCC[C@H]3CCO)nc12 [Dinaciclib] (1000 nM),88.2
5,Cc1c(C(=O)Nc2ccc(N3C[C@@H](C)O[C@@H](C)C3)nc2)cccc1-c1ccc(OC(F)(F)F)cc1 [Erismodegib] (10000 nM),63.9
6,COc1cc(Nc2ncc(F)c(Nc3ccc4c(n3)N(COP(=O)(O)O)C(=O)C(C)(C)O4)n2)cc(OC)c1OC [Fostamatinib] (2500 nM),89.1
7,CC(C)NC[C@@H](C(=O)N1CCN(c2ncnc3c2[C@H](C)C[C@H]3O)CC1)c1ccc(Cl)cc1 [GDC-0068] (10000 nM),90.9
8,CCCc1cc(C)[nH]c(=O)c1CNC(=O)c1cc(-c2ccnc(N3CCN(C)CC3)c2)cc2c1cnn2C(C)C [GSK343] (10000 nM),-8.4

# System: MDA-MB-436
# Experiment: as above
# Details: incubation time: 72 h
# Outline: as §1
row,Compound,normalised response [%]
1,CC(C)(C)Cn1c(N)nc2ccc(-c3[nH]c(C(C)(C)C)nc3-c3ccc(F)cc3)nc21 (10000 nM),71.1
2,Cn1cc(C[C@@H](N)C(=O)O)c2ccccc21 [1-methyl-D-tryptophan] (5000 nM),93.1
3,CC[C@H](CC#N)OC(=O)N[C@@H](C)c1cccc(NC(=O)Nc2ccc(-c3cnco3)c(OC)c2)c1 [AVN944] (10000 nM),97.9
4,CCc1cnn2c(NCc3ccc[n+]([O-])c3)cc(N3CCCC[C@H]3CCO)nc12 [Dinaciclib] (1000 nM),86.5
5,Cc1c(C(=O)Nc2ccc(N3C[C@@H](C)O[C@@H](C)C3)nc2)cccc1-c1ccc(OC(F)(F)F)cc1 [Erismodegib] (10000 nM),79
6,COc1cc(Nc2ncc(F)c(Nc3ccc4c(n3)N(COP(=O)(O)O)C(=O)C(C)(C)O4)n2)cc(OC)c1OC [Fostamatinib] (2500 nM),86.6
7,CC(C)NC[C@@H](C(=O)N1CCN(c2ncnc3c2[C@H](C)C[C@H]3O)CC1)c1ccc(Cl)cc1 [GDC-0068] (10000 nM),96
8,CCCc1cc(C)[nH]c(=O)c1CNC(=O)c1cc(-c2ccnc(N3CCN(C)CC3)c2)cc2c1cnn2C(C)C [GSK343] (10000 nM),95.2

# System: HCC1599
# Experiment: as above
# Details: incubation time: 72 h
# Outline: as §1
row,Compound,normalised response [%]
1,CC(C)(C)Cn1c(N)nc2ccc(-c3[nH]c(C(C)(C)C)nc3-c3ccc(F)cc3)nc21 (10000 nM),85.6
2,Cn1cc(C[C@@H](N)C(=O)O)c2ccccc21 [1-methyl-D-tryptophan] (5000 nM),98
3,CC[C@H](CC#N)OC(=O)N[C@@H](C)c1cccc(NC(=O)Nc2ccc(-c3cnco3)c(OC)c2)c1 [AVN944] (10000 nM),97.1
4,CCc1cnn2c(NCc3ccc[n+]([O-])c3)cc(N3CCCC[C@H]3CCO)nc12 [Dinaciclib] (1000 nM),74.5
5,Cc1c(C(=O)Nc2ccc(N3C[C@@H](C)O[C@@H](C)C3)nc2)cccc1-c1ccc(OC(F)(F)F)cc1 [Erismodegib] (10000 nM),118
6,COc1cc(Nc2ncc(F)c(Nc3ccc4c(n3)N(COP(=O)(O)O)C(=O)C(C)(C)O4)n2)cc(OC)c1OC [Fostamatinib] (2500 nM),92.7
7,CC(C)NC[C@@H](C(=O)N1CCN(c2ncnc3c2[C@H](C)C[C@H]3O)CC1)c1ccc(Cl)cc1 [GDC-0068] (10000 nM),95.9
8,CCCc1cc(C)[nH]c(=O)c1CNC(=O)c1cc(-c2ccnc(N3CCN(C)CC3)c2)cc2c1cnn2C(C)C [GSK343] (10000 nM),73.6

# System: HCC1143
# Experiment: as above
# Details: incubation time: 72 h
# Outline: as §1
row,Compound,normalised response [%]
1,CC(C)(C)Cn1c(N)nc2ccc(-c3[nH]c(C(C)(C)C)nc3-c3ccc(F)cc3)nc21 (10000 nM),87.1
2,Cn1cc(C[C@@H](N)C(=O)O)c2ccccc21 [1-methyl-D-tryptophan] (5000 nM),124
